Data on 3 molecules can be found in patent publication US20260083725A1, “SIGMARI LIGAND FOR THE TREATMENT OF PANCREATIC CANCER” (INSTITUT NATIONAL DE LA SANTÉ ET DE LA RECHERCHE MÉDICALE, priority 2022, published 2026).

The subject of assay [1] is SK2 channel. Description: Whole cell patch clamp recording of SK2 current in pancreatic cancer cells. It is filed as cell-based, human. The note with it: for CAF-CM-induced SK2 current: PANC-1 cells incubated with CAF-CM plus inhibitor or antibody. On the procedure: Electrophysiological recordings in HEK293-T, PANC-1 and MiaPaCa-2 cells were performed in the whole cell configuration of the patch clamp technique at room temperature. Cells were bathed in a solution containing: 5 mM KCl, 145 mM NaCl, 1 mM MgCl2, 2 mM CaCl2, and 10 mM Hepes (pH adjusted to 7.4 with HCl, 300 mosm/L). Soft glass patch electrodes (Brand, Wertheim, Germany) were made on a horizontal pipette puller (P-97, Sutter Instrument Co., Novato, CA) to achieve a final resistance ranging from 3 to 5 MΩ. The internal solution was: 145 mM KCl, 1 mM MgCl2, 0.87 mM CaCl2, 1 mM EGTA, 10 mM Hepes, 1 mM ATP (pH adjusted to 7.2 with KOH, 308 mosm/L, pCa 6). Recordings were performed at room temperature in the voltage clamp mode using an PC-controlled EPC 9 patch-clamp amplifier (HEKA, Lambrecht/Pfalz, Germany). Currents were acquired and analyzed with Pulse and Pulsefit software (HEKA). Signal were filtered at 10 kHz and digitalized at 20 kHz. Currents were elicited by voltage ramps protocols (from −120 to +60 mV). Current density was measured at 0 mV. For the electrophysiological study of the SK2 mutations, HEK293-T were transfected with the different constructions and the HA-myr-AKT using calcium phosphate and recorded 24 h after transfection.
In general terms: The patch-clamp technique gives a direct electrical read-out from membranes.

In assay [2] the test system is SK2/AKT interaction. Nature of the assay: In situ proximity ligation assay of SK2/AKT interaction in PANC-1 cells. The conditions noted are these: PANC-1 Sh RD cells, overnight CAF-CM + 1(S) ligand 1 μM; FIG. 1B. Type of assay: cell-based, human. On the procedure:
The DuoLink in situ Proximity Ligation Assay (PLA) (Olink Bioscience, Uppsala, Sweden) was used to detect the interaction between SK2 and different candidates' partner (C-myc Sig-1R, EGFR, AKT, β1 integrin). PANC-1 cells expressing a stable Sh R D, Sh Sig-1R, or Sh SK2 were seeded on poly-Lysine (40 μg/mL) coated microscope slides. Cells were fixed with PFA 4% and permeabilized with triton X100 (0.05%). Cells were immunolabeled with primary antibodies: anti SK2 (1:100) and anti C-myc, (1:100) or anti EGFR (1:100), or anti AKT (1:100), or anti β1 integrin (1:100) for 1 h at 37° C. The secondary antibodies with attached PLA probes were supplied in the Duolink kit. Cellular PLA images were captured using an inverted Zeiss Axio Observer Z1 microscope (Zeiss, Jena, Germany). 6 to 10 fields have been imaged and quantified per conditions.

The test system of assay [3] is KICpdx1 mice. Description: Endogenous PDAC mice model (KICpdx1 mice) treated with 1(S) ligand. Type of assay: in vivo, mouse. The conditions noted are these: for median survival: once a week, non-treated 67 days. On the procedure:
Pdx1-Cre, Ink4afl/fl LSL-KrasG12D (KICpdx1) mice were obtained by crossing of the following strains: Pdx1-Cre, Ink4afl/fl, and LSL-KrasG12D mice provided by D. Melton (Harvard Stem Cell Institute, Cambridge, Massachusetts, USA), R. Depinho (Dana-Farber Cancer Institute, Boston, Massachusetts, USA), and T. Jacks (David H. Koch Institute for Integrative Cancer Research, Cambridge, Massachusetts, USA), respectively. PDAC-bearing 5- and 8-week-old mice were treated once a week with vehicle or 1(S) ligand (0.1 mg/injection/mouse) until experimental endpoint mice reaching sacrificing time or mice reaching physiological endpoints (cachexia criteria, limited movement, drinking or feeding of the mice). No exclusion has to be reported in all experiments as no mice reached a criteria of exclusion such as a fight-related wound or the development of ear inflammation.. To study final tumor volume, mice were euthanized at 9 weeks and tumors were weighted and fixed in 4% (wt/vol) formaldehyde for immunochemistry. For survival analyses, mice were euthanized when they developed ethical clinical end points defined by our institutional guidelines and European animal protection law. For all experiments, sample size was predicted following a Mann-Whitney statistical approach involving power calculation of 0.8 with a FDR of 0.05. A minimum number of 7 mice per group was predicted as able to reach significance. Bonferroni post-hoc test was used for multiples test comparison (two variance with time and/or treatment). Experimental technicians were proceeding with injections while personnel related to mice follow-up worked in a blinded approach. All animal care and experimental procedures were performed in agreement with the Animal Ethics Committee of Marseille then the French ministry of research and innovation under the reference Apafis#16998-2018100814458519.

Assay [4] relates to Panc-1 cells. Description: Proliferation and viability assays on Panc-1 cells. Type of assay: cell-based. The note with it: control Panc-1 cells or cells silenced for Sig1R or SK2.
[5] abbreviates: KICpdx1 mice treated from 5 weeks, end-point at 9 weeks, versus untreated.

For `CCN(CC)CCCCN1c2ccccc2Oc2ccc(Cl)cc21` [DEBC, reference compound], the “CAF-CM-induced SK2 current” value in assay [1] was “suppressed”.
For the molecule `CN(CCCN1C(=O)[C@@H]2Cc3ccccc3CN2C1=O)Cc1ccccc1` [Compound 1(S)], the “association of SK2 and AKT (PLA, interactions per cell)” value in assay [2] is listed as “prevented”. The “CAF-CM mediated activation of SK2 (ISK2 current)” value in assay [1] (PANC-1 cells exposed overnight to CAF-CM + 1(S) ligand 1 μM, patch-clamp, FIG. 1A) is “abolished”. Besides, the tumor progression entry in assay [3] (KICpdx1 mice treated from 5 weeks old, before the onset of PDAC) is “significantly delayed”. For the same molecule, the median survival in assay [3] (KICpdx1 mice treated from 5 weeks old, 0.1 mg/injection/mouse, FIG. 1D) was 84 days; in assay [3] (KICpdx1 mice treated from 8 weeks of age (PDAC already developed), FIG. 1H) it was 77 days. Besides, the “histological examination of pancreas” value in assay [3] (KICpdx1 mice treated from 5 weeks, end-point at 9 weeks) is given as “almost lack of malignant lesions”. Further, in assay [3] (setting [5]), the “ECM density (trichrome labelling, desmoplasia)” value is reported as “lower”. Also, the “number of EMT-reprogramming epithelial cells (Pan-CK/αSMA co-staining)” value in assay [3] (setting [5]) is reported as “lower”. Also, the “reduction of pancreas weight compared to non-treated” value in assay [3] (KICpdx1 mice treated from 5 weeks, end-point at 9 weeks, FIG. 1F) was 69%. For the same molecule, the pancreas weight in assay [3] (KICpdx1 mice treated from 5 weeks, end-point at 9 weeks, non-treated 1.44 g (±0.42), FIG. 1F) worked out at 0.45 g. Besides, the metastasis onset result in assay [3] (mouse models of PDAC treated with 1(S)) is given as “reduced”. Besides, the “effect on proliferation and viability” value in assay [4] is “does not exhibit any effect”.
With `C#Cc1cccc(Nc2ncnc3cc(OCCOC)c(OCCOC)cc23)c1` [Erlotinib, reference compound], in assay [1], the “CAF-CM-induced SK2 current” value is on record as “suppressed”.
